In patent US20230117034A1, “PYRAZOLOTRIAZINES” (Bayer Aktiengesellschaft, priority 2019, published 2023):
Where two headings read alike, the source gives them in different places.

Tests used:
[1] = molecular target: T1, CDK2/CycE (Homo sapiens, UniProt P24941); test: CDK2/CycE kinase assay (TR-FRET, 2 mM ATP); assay type: biochemical; conditions: 2 mM ATP (high ATP); median; read-out: CDK2/CyclinE, 2 mM ATP (high ATP), IC50 (median)
T1 construct: purchased ProQinase GmbH (Freiburg, Germany); host or cells: insect cells (Sf9)
Outline: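 Biotin-peptide phosphorylation (0.75 µM substrate, 2 mM ATP final, 25 min, 22 °C) by Sf9-expressed GST-CDK2/GST-CycE, after a 15-min compound pre-binding step. Inhibition scaled between enzyme-free (100%) and uninhibited (0%) wells.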

[2] = system: MDA-MB-231, human breast cancer cells; test: Proliferation assay MDA-MB-231 (crystal violet, 4 days); assay type: cell-based; conditions: MDA-MB-231 cells, median, read-out: Prolif-MDA MB-231, IC50-[mol/l] (median)
Outline: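 IC50 from a 4-parameter fit of crystal violet absorbance (595 nm), scaled between a day-0 plate (0%) and untreated wells (100%). Cells grown in 10% FCS medium were exposed to test substances at 0.01-10 µmol/L for 4 days, 0.1% DMSO final.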

[3] = molecular target: T2, CYCLIN K (nuclear staining in CAL-120 cells) (Homo sapiens, UniProt O75909); test: CYCLIN K nuclear protein level: immunofluorescence high content analysis (CAL-120); assay type: cell-based; conditions: 24 h, 50% reduction of nuclear CCNK staining intensity, median, read-out: CYCLIN K degradation IF, DC50-[mol/l] (median)
T2 construct: endogenous in cells; host or cells: CAL-120 human breast cancer cells (DSMZ ACC 459)
T2 sequence (O75909 whole entry): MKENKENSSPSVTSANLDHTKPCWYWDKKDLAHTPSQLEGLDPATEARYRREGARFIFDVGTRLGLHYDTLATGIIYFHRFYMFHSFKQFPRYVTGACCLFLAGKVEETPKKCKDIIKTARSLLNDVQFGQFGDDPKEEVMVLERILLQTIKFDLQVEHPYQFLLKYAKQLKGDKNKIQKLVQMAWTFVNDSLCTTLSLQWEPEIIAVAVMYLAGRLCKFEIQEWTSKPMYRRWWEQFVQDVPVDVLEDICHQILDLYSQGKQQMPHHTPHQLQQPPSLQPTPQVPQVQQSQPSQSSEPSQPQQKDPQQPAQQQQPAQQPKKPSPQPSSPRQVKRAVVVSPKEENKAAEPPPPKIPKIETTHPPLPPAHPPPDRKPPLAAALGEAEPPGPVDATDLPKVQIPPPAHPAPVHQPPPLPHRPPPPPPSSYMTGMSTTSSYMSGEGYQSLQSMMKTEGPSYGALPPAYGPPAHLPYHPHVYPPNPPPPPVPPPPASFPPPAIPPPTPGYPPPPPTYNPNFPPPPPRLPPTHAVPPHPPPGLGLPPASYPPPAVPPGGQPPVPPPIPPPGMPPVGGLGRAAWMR
T2 sequence (Q9NYV4 whole entry partner): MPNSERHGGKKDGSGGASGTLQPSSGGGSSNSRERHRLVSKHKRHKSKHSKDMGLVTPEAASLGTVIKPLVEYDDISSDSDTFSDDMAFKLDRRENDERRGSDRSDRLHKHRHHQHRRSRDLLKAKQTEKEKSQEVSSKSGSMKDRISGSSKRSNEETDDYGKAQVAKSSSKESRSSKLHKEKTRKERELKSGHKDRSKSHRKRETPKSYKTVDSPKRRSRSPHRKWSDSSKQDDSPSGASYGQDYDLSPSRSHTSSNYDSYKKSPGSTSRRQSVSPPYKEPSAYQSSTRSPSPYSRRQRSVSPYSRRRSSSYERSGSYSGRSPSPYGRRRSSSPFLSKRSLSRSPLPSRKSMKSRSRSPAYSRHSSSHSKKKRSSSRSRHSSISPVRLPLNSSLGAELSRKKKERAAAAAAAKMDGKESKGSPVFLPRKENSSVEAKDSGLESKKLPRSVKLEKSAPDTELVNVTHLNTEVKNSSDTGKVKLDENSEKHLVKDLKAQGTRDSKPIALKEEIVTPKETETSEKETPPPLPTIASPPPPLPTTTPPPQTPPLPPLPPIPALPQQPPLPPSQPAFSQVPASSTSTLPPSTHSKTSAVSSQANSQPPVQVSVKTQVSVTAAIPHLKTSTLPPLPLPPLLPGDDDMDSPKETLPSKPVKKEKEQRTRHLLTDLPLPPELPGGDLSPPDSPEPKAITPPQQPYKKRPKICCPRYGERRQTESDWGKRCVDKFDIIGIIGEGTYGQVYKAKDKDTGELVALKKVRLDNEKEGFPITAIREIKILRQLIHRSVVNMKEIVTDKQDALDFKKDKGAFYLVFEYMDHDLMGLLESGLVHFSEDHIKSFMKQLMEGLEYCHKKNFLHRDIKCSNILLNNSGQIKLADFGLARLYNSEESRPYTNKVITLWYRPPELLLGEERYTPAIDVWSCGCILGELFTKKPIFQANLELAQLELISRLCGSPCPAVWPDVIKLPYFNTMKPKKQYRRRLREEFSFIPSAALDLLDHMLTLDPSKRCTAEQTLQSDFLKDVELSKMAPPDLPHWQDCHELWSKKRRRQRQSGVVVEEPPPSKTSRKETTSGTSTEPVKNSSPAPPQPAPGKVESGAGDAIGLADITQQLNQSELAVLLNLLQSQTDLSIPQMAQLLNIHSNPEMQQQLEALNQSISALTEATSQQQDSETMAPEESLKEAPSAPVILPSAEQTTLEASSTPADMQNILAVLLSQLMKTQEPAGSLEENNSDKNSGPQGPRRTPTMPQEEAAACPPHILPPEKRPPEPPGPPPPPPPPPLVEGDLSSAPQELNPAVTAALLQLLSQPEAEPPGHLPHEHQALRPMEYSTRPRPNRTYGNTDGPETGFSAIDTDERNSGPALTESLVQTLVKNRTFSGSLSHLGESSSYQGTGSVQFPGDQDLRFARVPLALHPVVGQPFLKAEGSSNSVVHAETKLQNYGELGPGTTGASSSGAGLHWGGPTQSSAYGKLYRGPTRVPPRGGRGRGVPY
Outline: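 Readout is automated confocal image analysis of nuclear cyclin K immunofluorescence (Hoechst nuclei) after PFA fixation. Cells were CAL-120, exposed to compound dose-response 24 h at 37 °C; values are DC50 for halving nuclear CCNK signal relative to DMSO and control wells.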

Row | SMILES | IC50 [1] | IC50 ([2]; Homo sapiens, MDA-MB-231, 96 h) | DC50 [3] | IC50 [2]
1 | Fc1ccc2[nH]c(CNc3nc(N4CCOCC4)nc4c(C5CC5(F)F)cnn34)nc2c1 (racemic) [Example 286, 8-[(1RS)-2,2-difluorocyclopropyl]-N-[(5-fluoro-1H-benzimidazol-2-yl)methyl]-2-(morpholin-4-yl)pyrazolo[1,5-a][1,3,5]triazin-4-amine] | > 20000 nM | 20 nM | 1.89 nM | 
2 | CN1CCN(c2nc(NCc3nc4ccccc4[nH]3)n3ncc(Br)c3n2)C(CO)C1 (single isomer, unassigned) [Example 280, [(2R or S)-1-(4-{[(1H-benzimidazol-2-yl)methyl]amino}-8-bromopyrazolo[1,5-a][1,3,5]triazin-2-yl)-4-methylpiperazin-2-yl]methanol] | 17400 nM | 231 nM |  | 
3 | Fc1ccc2[nH]c(CNc3nc(N4CCOCC4)nc4c(C5CC5(F)F)cnn34)nc2c1 (single isomer, unassigned) [Example 314, 8-[(1R or S)-2,2-difluorocyclopropyl]-N-[(5-fluoro-1H-benzimidazol-2-yl)methyl]-2-(morpholin-4-yl)pyrazolo[1,5-a][1,3,5]triazin-4-amine] | > 20000 nM | 31.3 nM | 1.11 nM | 
4 | Fc1ccc2[nH]c(CNc3nc(N4CCOCC4)nc4c([C@@H]5CC5(F)F)cnn34)nc2c1 (single isomer, unassigned) [Example 315, 8-[(1R or S)-2,2-difluorocyclopropyl]-N-[(5-fluoro-1H-benzimidazol-2-yl)methyl]-2-(morpholin-4-yl)pyrazolo[1,5-a][1,3,5]triazin-4-amine] | > 20000 nM | 88 nM | 2.15 nM | 
5 | Brc1cnn2c(NCc3nc4ccccc4[nH]3)nc(N3C[C@H]4CC[C@@H]3CN4)nc12 (single isomer, unassigned) [Example 316, N-[(1H-benzimidazol-2-yl)methyl]-8-bromo-2-{[1R or S-(1R*4R*)]-2,5-diazabicyclo[2.2.2]octan-2-yl}pyrazolo[1,5-a][1,3,5]triazin-4-amine] | 284 nM | 22.8 nM |  | 
6 | c1ccc2[nH]c(CNc3nc(N4C[C@@H]5CCCN[C@@H]5C4)nc4c(C5CC5)cnn34)nc2c1 [Example 249, N-[(1H-benzimidazol-2-yl)methyl]-8-cyclopropyl-2-[(4aS,7aS)-octahydro-6H-pyrrolo[3,4-b]pyridin-6-yl]pyrazolo[1,5-a][1,3,5]triazin-4-amine] | > 20000 nM | 40.3 nM |  | 
7 | Brc1cnn2c(NCc3nc4ccccc4[nH]3)nc(N3C[C@H]4CN[C@H]4C3)nc12.O=C(O)C(F)(F)F [Example 255, trifluoroacetic acid-N-[(1H-benzimidazol-2-yl)methyl]-8-bromo-2-[(1R,5R)-3,6-diazabicyclo[3.2.0]heptan-3-yl]pyrazolo[1,5-a][1,3,5]triazin-4-amine (1/1)] | > 20000 nM | 61 nM |  | 
8 | Fc1ccc2[nH]c(CNc3nc(N4CCOCC4)nc4c(C(F)(F)F)cnn34)nc2c1 [Example 273, N-[(5-fluoro-1H-benzimidazol-2-yl)methyl]-2-(morpholin-4-yl)-8-(trifluoromethyl)pyrazolo[1,5-a][1,3,5]triazin-4-amine] |  | 6 nM | 0.66 nM | 
9 | Fc1ccc2[nH]c(CNc3nc(N4CCOCC4)nc4c(C5CCOCC5)cnn34)nc2c1F [Example 276, N-[(4,5-difluoro-1H-benzimidazol-2-yl)methyl]-2-(morpholin-4-yl)-8-(oxan-4-yl)pyrazolo[1,5-a][1,3,5]triazin-4-amine] | > 20000 nM | 258 nM |  | 
10 | COc1cccc2[nH]c(CNc3nc(N4CCOCC4)nc4c(CC(F)(F)F)cnn34)nc12 [Example 277, N-[(4-methoxy-1H-benzimidazol-2-yl)methyl]-2-(morpholin-4-yl)-8-(2,2,2-trifluoroethyl)pyrazolo[1,5-a][1,3,5]triazin-4-amine] | > 20000 nM | 40.2 nM |  | 
11 | CN1CCN(c2nc(NCc3nc4c(F)cccc4[nH]3)n3ncc(C(F)(F)F)c3n2)CC1 [Example 293, N-[(4-fluoro-1H-benzimidazol-2-yl)methyl]-2-(4-methylpiperazin-1-yl)-8-(trifluoromethyl)pyrazolo[1,5-a][1,3,5]triazin-4-amine] |  | 36.1 nM | 0.385 nM | 

The remaining molecules from weak to strong by IC50 [1], led by results:

Row | IC50 [1] | IC50 ([2]; Homo sapiens, MDA-MB-231, 96 h) | DC50 [3] | IC50 [2] | SMILES
12 | 16100 nM | 107 nM |  |  | Brc1cnn2c(NCc3nc4ccccc4[nH]3)nc(N3C[C@@H]4CN[C@@H]4C3)nc12.O=C(O)C(F)(F)F [Example 267, trifluoroacetic acid-N-[(1H-benzimidazol-2-yl)methyl]-8-bromo-2-[(1S,5S)-3,6-diazabicyclo[3.2.0]heptan-3-yl]pyrazolo[1,5-a][1,3,5]triazin-4-amine (1/1)]
13 | 15500 nM | 593 nM |  |  | Brc1cnn2c(NCc3nc4ccncc4[nH]3)nc(N3CCOCC3)nc12 [Example 22, 8-bromo-N-[(3H-imidazo[4,5-c]pyridin-2-yl)methyl]-2-(morpholin-4-yl)pyrazolo[1,5-a][1,3,5]triazin-4-amine]
14 | 11400 nM |  |  |  | Brc1cnn2c(NCc3nc4cccnc4[nH]3)nc(N3CCNCC3)nc12.O=CO [Example 19, 8-bromo-N-[(3H-imidazo[4,5-b]pyridin-2-yl)methyl]-2-(piperazin-1-yl)pyrazolo[1,5-a][1,3,5]triazin-4-amine formic acid salt]
15 | 10200 nM | 178 nM |  |  | CC1(O)CCN(c2nc(NCc3nc4ccccc4[nH]3)n3ncc(Br)c3n2)C1 (single isomer, unassigned) [Example 282, (3R or S)-1-(4-{[(1H-benzimidazol-2-yl)methyl]amino}-8-bromopyrazolo[1,5-a][1,3,5]triazin-2-yl)-3-methylpyrrolidin-3-ol]
16 | 9480 nM | 34.3 nM |  |  | CN(CC1CC1)c1nc(NCc2nc3ccccc3[nH]2)n2ncc(Br)c2n1 [Example 287, N^4-[(1H-benzimidazol-2-yl)methyl]-8-bromo-N^2-(cyclopropylmethyl)-N^2-methylpyrazolo[1,5-a][1,3,5]triazine-2,4-diamine]
17 | 4560 nM |  | 0.263 nM |  | Fc1ccc2[nH]c(CNc3nc(N4CCOCC4)nc4c(Br)cnn34)nc2c1F [Example 25, 8-bromo-N-[(4,5-difluoro-1H-benzimidazol-2-yl)methyl]-2-(morpholin-4-yl)pyrazolo[1,5-a][1,3,5]triazin-4-amine]
18 | 3280 nM | 306 nM | 20.8 nM |  | C[C@@]1(O)CCN(c2nc(NCc3nc4ccccc4[nH]3)n3ncc(Br)c3n2)C1 (single isomer, unassigned) [Example 281, (3R or S)-1-(4-{[(1H-benzimidazol-2-yl)methyl]amino}-8-bromopyrazolo[1,5-a][1,3,5]triazin-2-yl)-3-methylpyrrolidin-3-ol]
19 | 3100 nM | 55.5 nM |  |  | NC12CC1CN(c1nc(NCc3nc4ccccc4[nH]3)n3ncc(Br)c3n1)C2 (stereo not shown) [Example 258, 2-(1-amino-3-azabicyclo[3.1.0]hexan-3-yl)-N-(1H-benzimidazol-2-ylmethyl)-8-bromo-pyrazolo[1,5-a][1,3,5]triazin-4-amine]
20 | 2980 nM |  | 0.152 nM | 13.4 nM | CC1CN(C)CCN1c1nc(NCc2nc3ccccc3[nH]2)n2ncc(Br)c2n1 (single isomer, unassigned; enantiomer 1) [Example 260, N-(1H-benzimidazol-2-ylmethyl)-8-bromo-2-[(2R or S)-2,4-dimethylpiperazin-1-yl]pyrazolo[1,5-a][1,3,5]triazin-4-amine (Enantiomer 1)]
21 | 2100 nM | 133 nM |  |  | NC1(C(F)(F)F)CCN(c2nc(NCc3nc4ccccc4[nH]3)n3ncc(Br)c3n2)C1 (stereo not shown) [Example 266, 2-[3-amino-3-(trifluoromethyl)pyrrolidin-1-yl]-N-(1H-benzimidazol-2-ylmethyl)-8-bromo-pyrazolo[1,5-a][1,3,5]triazin-4-amine]
22 | 2070 nM | 285 nM |  |  | Brc1cnn2c(NCc3nc4c([nH]3)CCCC4)nc(N3CCOCC3)nc12 [Example 21, 8-bromo-2-(morpholin-4-yl)-N-[(4,5,6,7-tetrahydro-1H-benzimidazol-2-yl)methyl]pyrazolo[1,5-a][1,3,5]triazin-4-amine]
23 | 1990 nM | 73.5 nM |  |  | Brc1cnn2c(NCc3nc4ccccc4[nH]3)nc(NCC3CC3)nc12 [Example 284, N^4-[(1H-benzimidazol-2-yl)methyl]-8-bromo-N^2-(cyclopropylmethyl)pyrazolo[1,5-a][1,3,5]triazine-2,4-diamine]
24 | 1400 nM | 31.9 nM |  |  | N[C@H]1CN(c2nc(NCc3nc4ccccc4[nH]3)n3ncc(Br)c3n2)CC12CC2 [Example 259, 2-[(7R)-7-amino-5-azaspiro[2.4]heptan-5-yl]-N-[(1H-benzimidazol-2-yl)methyl]-8-bromopyrazolo[1,5-a][1,3,5]triazin-4-amine]
